Laboratory results reported in patent US5840918A, “Isoprenyl transferase inhibitors” (Eisai Co., Ltd., priority 1997, dated 1998).
Entries after “also recorded” stand apart in the source; their conditions may differ.

How the values were obtained:
FTase = target: T1, FTase (Bos taurus, UniProt P29702+P49355); assay: Inhibition of FTase-mediated prenylation (in vitro prenylation assay); format: biochemical; conditions: Table 1; partially purified FTase, 3 μM recombinant H-ras, 440 nM [3H]FPP, 15 min 37° C
T1 construct: bovine brain by inference from the cited Moores et al. 1991
Text: (§1) Nanomolar concentrations of the indicated compounds were sufficient to inhibit farnesylation of ras proteins in vitro. For screening candidate compounds useful for the treatment of ras-associated tumors, the FTase assay is preferred. […] Substitutions which confer GGTase specificity as taught herein also produced potent inhibitors of GGTase.

[1] = system: H-ras farnesylation in H-ras (61L) transformed NIH3T3 fibroblasts; assay: Inhibition of H-ras farnesylation in whole cells (Western blot); format: cell-based, mouse; conditions: Mus musculus, NIH3T3, 24 h, Table 2
Protocol: The ability of compounds of the invention to inhibit H-ras farnesylation and rap1 geranylgeranylation in whole cells was determined. H-ras (61L) transformed NIH3T3 fibroblasts were generously provided by C. Der, Univ. N. Carolina. These fibroblasts were treated for 24 h with 50 μM lovastatin (control) or the indicated concentrations of inhibitor. The cells were lysed in 1% NP-40, 5 mM Tris-HCl (pH 8.0), 5 mM EDTA, 0.1 mM N-tosyl-L-phenylalanine chloromethyl ketone, 0.1 mM N-tosyl-L-lysine chloromethyl ketone, and 1 mM phenylmethylsulfonyl fluoride. The lysate was centrifuged (15000×g, 5 min.) and the supernatant was used as a cell extract. […] After transfer to IMMOBILON P™ membrane (Millipore), the blots were probed with LA069 mouse monoclonal antibody to H-ras (Quality Biotech), or rabbit polyclonal antibody to rap1/Krev (Santa Cruz Biotechnology). All Western blots were developed using ECL chemiluminescent reagents (Amersham).

[2] = system: H-ras (61L) transformed NIH3T3 fibroblast tumors; assay: Inhibition of tumor xenograft in mice, Example E (PM061); format: in vivo, mouse; conditions: for T/C (%) Volume / Tumor Volume: day 15
Protocol: H-ras (61L) transformed NIH3T3 fibroblasts were grown in Dulbecco's modified Eagle's medium supplemented with 10% heat-inactivated calf serum. 100 U/mL penicillin, 100 μg/mL streptomycin, and 0.75 mg/mL G418 (GIBCO) and incubated at 37° C. in 5% CO2. Cells were harvested from exponential-phase maintenance cultures (T-225 cm^2 culture flasks, Corning Inc., Corning, N.Y.) with trypsin-EDTA (GIBCO), centrifuged at 160 ×g for 5 min, washed once with 10 mL cold Hank's balanced salt solution (HBSS, GIBCO), and resuspended at a concentration of 1×10^6 cells/mL.
Five week old female athymic nude mice were obtained from SLC (3371-8, Kotoummachi, Hamamatsu-shi, Shizuoka 431-11, Japan) and maintained under pathogen-free conditions. The mice were subcutaneously injected in the lateral flank with 1×10^5 H-ras transformed cells/mouse.
(§2) Inhibitor compound PD331 was suspended in saline containing 2% Tween-80 in a total injection volume of 0.2 mL. Two dosage concentrations were prepared, 0.3 mg/mouse or 1.0 mg/mouse. Compound PD331 was subcutaneously injected daily at the site of tumor cell implantation for 5 consecutive days, starting approximately 8 h after the implantation (day 0). The control group was injected with vehicle only. Body weight and tumor dimensions were measured at days 7, 10, and 14. Tumor volume was estimated by the following calculation: tumor volume =(0.5)(length×width×width). At day 14, each mouse was euthanized with CO2 (g), and each tumor was excised and weighed. The statistical significance was estimated by the Student's T-test.
The same in vivo experiment as Example D above was performed, using compound PM061. Instead of 0.3 mg/mouse and 1.0 mg/mouse, three injection concentrations were prepared (0.5 mg/mouse, 1.0 mg/mouse, and 2.0 mg/mouse). Body weight and tumor size were measured at days 7, 10, and 15. Tumors were excised at day 15.

GGTase = assay: Inhibition of GGTase-mediated prenylation (in vitro prenylation assay); format: biochemical; conditions: Table 1; partially purified GGTase, 5 μM recombinant H-ras (61L, CAIL), 1 μM [3H] geranylgeranyl diphosphate
Text: as §1

HT1080 = assay: Inhibition of anchorage-independent tumor cell growth, HT1080; format: cell-based; conditions: Homo sapiens, HT-1080, 336 h; HT1080, 14 days, soft agar
Protocol: (§3) HT1080 is a […] with a N-ras mutation. MIApaca-2 is a pancreatic carcinoma and Sw620 is a colonic carcinoma; each of these has a K-ras mutation. T24 is a bladder carcinoma with a H-ras mutation; and zH1 is a H-ras-transformed NIH/3T3 mouse fibroblast. Additional compounds have been tested and have yielded positive results in these organ-specific or ras-protein specific anchorage-independent tumor cell models.
(§4) Five tumor cell lines were seeded at 600 cells/well (12-well plates) in 0.6 mL of 0.3% Noble agar in culture medium over a bottom agar layer (0.5% Noble agar in culture medium). The culture medium was Dulbecco's modified Eagle's medium (Nissui Pharmaceutical Co., Ltd., Tokyo, Japan), supplemented with 10% heat-inactivated calf serum (GIBCO, Grand Island, N.Y.). A 10 mM stock solution of inhibitor compound PD331 in DMSO was diluted with culture medium to 3× the final concentration and 0.6 mL of the diluted inhibitor solution was overlayed on each well. Controls contained the same amount of DMSO as inhibitor samples. Plates were incubated at 37° C. in 5% CO2 for 14 days. Colonies were counted by replacement of the overlaying medium with 0.6 mL of 2 mg/mL MTT in PBS, incubation for 30 min, and quantitation of scanned photographs. IC50 concentrations for each cell line are shown below in Table 3.

[3] = system: zH1 (H-ras-transformed NIH/3T3 mouse fibroblast); assay: Inhibition of anchorage-independent tumor cell growth, zH1; format: cell-based; conditions: NIH3T3, 336 h, zH1, 14 days, soft agar
Protocol: as §3, §4

[4] = system: H-ras (61L) transformed NIH3T3 fibroblast tumors; assay: Inhibition of tumor xenograft in mice, Example D (PD331); format: in vivo, mouse; conditions: for T/C (%) Volume / Tumor Volume: day 14
Protocol: as §2, with “Cells were harvested from exponential-phase maintenance cultures (T-225 cm^2 culture flasks, Corning Inc., Corning, N.Y.) with trypsin-EDTA (GIBCO), centrifuged at 160 ×g for 5 min, washed once with 10 mL cold Hank's balanced salt solution (HBSS, GIBCO), and resuspended at a concentration of 1×10^6 cells/mL. Five week old female athymic nude mice were obtained from SLC (3371-8, Kotoummachi, Hamamatsu-shi, Shizuoka 431-11, Japan) and maintained under pathogen-free conditions. […] Inhibitor” for “Inhibitor”

MIApaca-2 = assay: Inhibition of anchorage-independent tumor cell growth, MIApaca-2; format: cell-based; conditions: Homo sapiens, MIA PaCa-2, 336 h; MIApaca-2, 14 days, soft agar
Protocol: as §3, §4

Sw620 = assay: Inhibition of anchorage-independent tumor cell growth, Sw620; format: cell-based; conditions: Homo sapiens, SW-620, 336 h; Sw620, 14 days, soft agar
Protocol: as §3, §4

T24 = assay: Inhibition of anchorage-independent tumor cell growth, T24; format: cell-based; conditions: Homo sapiens, T-24, 336 h; T24, 14 days, soft agar
Protocol: as §3, §4

[5] = 0.3 mg/mouse s.c. daily for 5 days
[6] = 1.0 mg/mouse s.c. daily for 5 days

Compound: CSCC[C@H](NC(=O)c1cc(C/C=C/C(N)CS)ccc1-c1ccccc1)C(=O)O (stereo partly shown) [PM061]
- IC50 (FTase): 7 nM
- IC50 [1]: 4800 nM
- T/C (%) Volume ([2]; 0.5 mg/mouse s.c.): 90.3%
- Tumor Volume ([2]; 0.5 mg/mouse s.c.): 2360.4 ± 645.0 µL
- T/C (%) Volume ([2]; 1.0 mg/mouse s.c.): 101.8%
- Tumor Volume ([2]; 1.0 mg/mouse s.c.): 2660.3 ± 756.4 µL
- T/C (%) Volume ([2]; 2.0 mg/mouse s.c.): 53.6%
- Tumor Volume ([2]; 2.0 mg/mouse s.c.): 1400.6 ± 703.2 µL
- tumor volume as % of the tumor volume in the control mouse ([2]; injection of 2.0 mg): 53.2%
- effect on H-ras tumor growth in mice ([2]; mouse, in vivo): had a significant effect on H-ras tumor growth in mice; also recorded: effectively inhibited the growth of ras-associated tumors in mice
- IC50 (GGTase): 144 nM

Compound: CSCC[C@H](NC(=O)C(/C=C\[C@@H](/C=C/[C@@H](N)CS)C(C)C)Cc1ccccc1)C(=O)O (stereo partly shown) [PD331]
- IC50 (HT1080): 1800 nM
- IC50 (FTase): 11 nM
- IC50 [1]: 400 nM
- IC50 [3]: 600 nM
- IC50 (GGTase): 13 nM
- T/C (%) Volume [4, 5]: 53.3%
- Tumor Volume [4, 5]: 871.28 ± 526.90 µL
- T/C (%) Volume [4, 6]: 16.5%
- Tumor Volume [4, 6]: 269.55 ± 292.95 µL
- weight and volume of tumors versus control group ([4]; every concentration): both the weight and the volume of the tumors from the treated group were less than the weight and volume of tumors from the control group
- effect on H-ras tumor growth in mice ([4]; mouse, in vivo): has a significant effect on H-ras tumor growth in mice; also recorded: effectively inhibited the growth of ras-associated tumors in mice
- IC50 (MIApaca-2): 19000 nM
- IC50 (Sw620): 22000 nM
- IC50 (T24): 300 nM
